From patent publication US9828396B2, “Alkyne compounds for treatment of complement mediated disorders” (Achillion Pharmaceuticals, Inc., priority 2014, dated 2017)

target: Human factor D (Homo sapiens (Human), UniProt P00746); assay: Human Factor D Assay; format: biochemical; details: Human factor D 80 nM, substrate Z-L-Lys-SBzl, assay of Example 12
Method in brief: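 Serum-purified human factor D (80 nM final) was preincubated 5 min at room temperature with compound in 50 mM Tris, 1 M NaCl, pH 7.5. Z-L-Lys-SBzl and DTNB (100 μM each) were added and OD405 followed kinetically over 30 min; IC50 from non-linear regression of percent inhibition.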

Human factor D, sequence (P00746 26-253): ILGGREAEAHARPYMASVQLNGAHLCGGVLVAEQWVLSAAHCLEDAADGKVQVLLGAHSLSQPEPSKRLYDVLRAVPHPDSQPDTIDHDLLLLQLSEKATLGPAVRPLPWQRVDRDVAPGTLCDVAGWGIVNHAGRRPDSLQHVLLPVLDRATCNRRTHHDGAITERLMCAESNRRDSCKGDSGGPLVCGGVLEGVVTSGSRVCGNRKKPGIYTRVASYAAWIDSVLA

| Structure (SMILES) | IC50 |
| --- | --- |
| NC(=O)c1nn(CC(=O)N2C[C@H](F)C[C@H]2C(=O)Nc2cccc(Cl)n2)c2ccc(C#Cc3ccnnc3)cc12 [Compound 80, 1-(2-((2S,4R)-2-(6-chloropyridin-2-ylcarbamoyl)-4-fluoropyrrolidin-1-yl)-2-oxoethyl)-5-(pyridazin-4-ylethynyl)-1H-indazole-3-carboxamide] | < 1 µM |
| NC(=O)c1nn(CC(=O)N2C[C@H](F)C[C@H]2C(=O)Nc2nc(Cl)ccc2F)c2ccc(C#Cc3ncc(F)cn3)cc12 [Compound 81, 1-(2-((2S,4R)-2-(6-chloro-3-fluoropyridin-2-ylcarbamoyl)-4-fluoropyrrolidin-1-yl)-2-oxoethyl)-5-((5-fluoropyrimidin-2-yl)ethynyl)-1H-indazole-3-carboxamide] | < 1 µM |
| NC(=O)c1nn(CC(=O)N2C[C@H](F)C[C@H]2C(=O)Nc2cccc(Cl)n2)c2ccc(C#Cc3cnccn3)cc12 [Compound 82, 1-(2-((2S,4R)-2-(6-chloropyridin-2-ylcarbamoyl)-4-fluoropyrrolidin-1-yl)-2-oxoethyl)-5-(pyrazin-2-ylethynyl)-1H-indazole-3-carboxamide] | < 1 µM |
| NC(=O)c1nn(CC(=O)N2C[C@H](F)C[C@H]2C(=O)Nc2cccc(-c3ccccc3Cl)c2F)c2ccc(C#Cc3cnccn3)cc12 [Compound 83, 1-(2-((2S,4R)-2-(2′-chloro-2-fluorobiphenyl-3-ylcarbamoyl)-4-fluoropyrrolidin-1-yl)-2-oxoethyl)-5-(pyrazin-2-ylethynyl)-1H-indazole-3-carboxamide] | < 1 µM |
| NC(=O)c1nn(CC(=O)N2C[C@H](F)C[C@H]2C(=O)Nc2cncc(-c3ccccc3Cl)n2)c2ccc(C#Cc3ncc(F)cn3)cc12 [Compound 85, 1-(2-((2S,4R)-2-(6-(2-chlorophenyl)pyrazin-2-ylcarbamoyl)-4-fluoropyrrolidin-1-yl)-2-oxoethyl)-5-((5-fluoropyrimidin-2-yl)ethynyl)-1H-indazole-3-carboxamide] | < 1 µM |
| NC(=O)c1nn(CC(=O)N2C[C@H](F)C[C@H]2C(=O)Nc2cncc(-c3c(F)cccc3Cl)n2)c2ccc(C#Cc3ncc(F)cn3)cc12 [Compound 86, 1-(2-((2S,4R)-2-(6-(2-chloro-6-fluorophenyl)pyrazin-2-ylcarbamoyl)-4-fluoropyrrolidin-1-yl)-2-oxoethyl)-5-((5-fluoropyrimidin-2-yl)ethynyl)-1H-indazole-3-carboxamide] | < 1 µM |
| NC(=O)c1nn(CC(=O)N2C[C@H](F)C[C@H]2C(=O)Nc2cncc(-c3cc(F)c(F)cc3Cl)n2)c2ccc(C#Cc3ncc(F)cn3)cc12 [Compound 87, 1-(2-((2S,4R)-2-(6-(2-chloro-4,5-difluorophenyl)pyrazin-2-ylcarbamoyl)-4-fluoropyrrolidin-1-yl)-2-oxoethyl)-5-((5-fluoropyrimidin-2-yl)ethynyl)-1H-indazole-3-carboxamide] | < 1 µM |
| NC(=O)c1nn(CC(=O)N2C[C@H](F)C[C@H]2C(=O)Nc2cccc(Cl)n2)c2ccc(C#Cc3ncc(F)cn3)cc12 [Compound 88, 1-(2-((2S,4R)-2-(6-chloropyridin-2-ylcarbamoyl)-4-fluoropyrrolidin-1-yl)-2-oxoethyl)-5-((5-fluoropyrimidin-2-yl)ethynyl)-1H-indazole-3-carboxamide] | < 1 µM |
| NC(=O)c1nn(CC(=O)N2C[C@H](F)C[C@H]2C(=O)Nc2cncc(Br)n2)c2ccc(C#Cc3cnccn3)cc12 [Compound 89, 1-(2-((2S,4R)-2-(6-bromopyrazin-2-ylcarbamoyl)-4-fluoropyrrolidin-1-yl)-2-oxoethyl)-5-(pyrazin-2-ylethynyl)-1H-indazole-3-carboxamide] | < 1 µM |
| CC(=O)c1nn(CC(=O)N2C[C@H](F)C[C@H]2C(=O)Nc2cccc(Br)n2)c2ccc(C#Cc3ncc(F)cn3)cc12 [Compound 90, (2S,4R)-1-(2-(3-acetyl-5-((5-fluoropyrimidin-2-yl)ethynyl)-1H-indazol-1-yl)acetyl)-N-(6-bromopyridin-2-yl)-4-fluoropyrrolidine-2-carboxamide] | < 1 µM |
| Cc1cnc(C#Cc2ccc3c(c2)c(C(N)=O)nn3CC(=O)N2C[C@H](F)C[C@H]2C(=O)Nc2cccc(Br)n2)nc1 [Compound 91, 1-(2-((2S,4R)-2-(6-bromopyridin-2-ylcarbamoyl)-4-fluoropyrrolidin-1-yl)-2-oxoethyl)-5-((5-methylpyrimidin-2-yl)ethynyl)-1H-indazole-3-carboxamide] | < 1 µM |
| COc1ncc(C#Cc2ccc3c(c2)c(C(N)=O)nn3CC(=O)N2C[C@H](F)C[C@H]2C(=O)Nc2cccc(Br)n2)cn1 [Compound 92, 1-(2-((2S,4R)-2-(6-bromopyridin-2-ylcarbamoyl)-4-fluoropyrrolidin-1-yl)-2-oxoethyl)-5-((2-methoxypyrimidin-5-yl)ethynyl)-1H-indazole-3-carboxamide] | < 1 µM |
